The record followed here is ChEMBL document CHEMBL1144883, “Design, synthesis, and SAR of potent and selective dipeptide-derived inhibitors for dipeptidyl peptidases” (J Med Chem, 2003).

Assay [1] deals with T1, Dipeptidyl peptidase 4 (Homo sapiens, UniProt P27487).
Assay [2] concerns the target T2, Dipeptidyl peptidase 2 (Homo sapiens, UniProt Q9UHL4).
In assay [3] the target is T1, Dipeptidyl peptidase 4. The source holds these as a separate data set.
In assay [4] the target is T2, Dipeptidyl peptidase 2. The source holds these as a separate data set.
Assay [5] deals with T2, Dipeptidyl peptidase 2. Nature of the assay: Inhibitory activity of compound against Dipeptidylpeptidase II (DPP II).

T1 sequence (P27487 whole entry): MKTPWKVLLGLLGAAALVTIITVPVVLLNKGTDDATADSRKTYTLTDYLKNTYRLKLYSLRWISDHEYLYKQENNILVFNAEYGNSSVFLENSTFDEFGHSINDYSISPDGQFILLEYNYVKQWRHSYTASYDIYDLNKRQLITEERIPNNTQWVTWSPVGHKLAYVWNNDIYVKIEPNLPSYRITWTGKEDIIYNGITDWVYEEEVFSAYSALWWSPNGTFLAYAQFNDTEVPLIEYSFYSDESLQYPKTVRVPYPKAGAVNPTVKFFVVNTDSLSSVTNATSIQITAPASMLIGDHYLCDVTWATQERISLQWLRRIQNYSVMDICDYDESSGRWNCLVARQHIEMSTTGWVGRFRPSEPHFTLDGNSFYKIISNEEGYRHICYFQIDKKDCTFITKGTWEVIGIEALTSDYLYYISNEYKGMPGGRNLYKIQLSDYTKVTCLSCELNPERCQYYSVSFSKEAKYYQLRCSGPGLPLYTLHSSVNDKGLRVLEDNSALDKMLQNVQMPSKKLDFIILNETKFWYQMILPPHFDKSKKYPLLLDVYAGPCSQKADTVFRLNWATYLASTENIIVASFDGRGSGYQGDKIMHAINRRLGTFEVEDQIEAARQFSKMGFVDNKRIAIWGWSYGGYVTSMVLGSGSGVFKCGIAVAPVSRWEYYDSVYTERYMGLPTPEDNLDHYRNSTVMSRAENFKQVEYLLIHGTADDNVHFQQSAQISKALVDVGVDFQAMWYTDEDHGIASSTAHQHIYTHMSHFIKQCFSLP

In general, IC50 refers to the concentration at which inhibition is half-maximal. Take `NCCCCC(N)C(=O)N1CCSC1` (stereo not drawn): the IC50 came to 318 µM in assay [1], 3 µM in assay [2], 318 µM in assay [3] and 3 µM in assay [4].

Take `CCCCC(N)C(=O)N1CCCCC1` (stereo not drawn): the IC50 worked out at 250 µM in assay [1] and 32.4 µM in assay [2].

Take `CCC(C)C(N)C(=O)N1CC=CCC1` (stereo not drawn): the IC50 in assay [1] and in assay [2] was 52 µM throughout.

With `NC(C(=O)N1CCCCC1)C1CCCCC1` (stereo not drawn), the results for the IC50 in assay [1] and in assay [2] were 217 µM and 9.9 µM, respectively.

As to `NCCCC(N)C(=O)N1CCSC1` (stereo not drawn), the IC50 turned out to be 81 µM in assay [1] and 0.75 µM in assay [2].

Take `CCC(C)C(N)C(=O)N1CCC(O)C1` (stereo not drawn): the results for the concentration for half-maximal inhibition (IC50) in assay [1] and in assay [2] were 93 µM and 299 µM, respectively.

With `CCC(C)C(N)C(=O)N1CCC(OC(=O)c2ccccc2)C1` (stereo not drawn), the half-maximal inhibitory concentration (IC50) was more than 500 µM in assay [1] and 158 µM in assay [2].

As to `NC(CO)C(=O)N1CCCCC1` (stereo not drawn), the half-inhibitory concentration (IC50) in assay [1] came out at 67 µM; in assay [2], 62 µM.

In turn, `NCC(=O)N1CCCC1` yielded an IC50 in assay [2] of more than 1000 µM.

With `NCCC[C@H](N)C(=S)N1CCCCC1`, the half-maximal inhibitory concentration (IC50) in assay [1] is more than 1000 µM; in assay [2] it was 0.2 µM.

As to `N#C[C@@H]1CCCN1C(=O)[C@@H](N)CCCCN`, the IC50 in assay [1] was 0.32 µM; in assay [2], 1 µM.

On to `CCC(C)C(N)C(=O)N1CCCCC1` (stereo not drawn), for which, in assay [2], the half-inhibitory concentration (IC50) is 59 µM.

As for `N#CC1CCCCN1C(=O)C(N)CCCCN` (stereo not drawn), the half-inhibitory concentration (IC50) in assay [1] was 51 µM; in assay [2], 1.5 µM.

`NCCCC[C@H](N)C(=O)N1CCCCC1` (stereo in doubt; 8.4): the concentration for half-maximal inhibition (IC50) in assay [1] is 247 µM; in assay [2], 1.6 µM.

Turning to `CCC(C)C(N)C(=O)N(C)CC` (stereo not drawn), the IC50 in assay [1] is 167 µM; in assay [2], more than 500 µM.

Turning to `CCC(C)C(N)C(=O)N(C)C` (stereo not drawn), the IC50 in assay [1] was 360 µM; in assay [2], more than 1000 µM.

As for `CCC(C)C(N)C(=O)N1CC=CC1` (stereo not drawn), half-maximal inhibition in assay [2] (IC50) required 288 µM.

Compound `N[C@@H](CC(=O)O)C(=O)N1CCCC1` gave an IC50 in assay [2] of more than 500 µM.

Turning to `O=C(CNC1CCCC1)NC(c1ccccc1)P(=O)(Oc1ccccc1)Oc1ccccc1` (stereo not drawn), in assay [1], the IC50 is more than 125 µM.

With `CCC(N)C(=O)N1CCCCC1` (stereo not drawn), the IC50 worked out at 250 µM in assay [1] and 88.7 µM in assay [2].

Regarding `O=C([C@@H]1CCCN1)N1CCCC1`, in assay [2], the IC50 is more than 500 µM.

As for `NCCCCC(N)C(=O)N1CC=CCC1` (stereo not drawn), the IC50 in assay [1] was more than 500 µM; in assay [2], 10.9 µM.

Regarding `CCCC(N)C(=O)N1CCCCC1` (stereo not drawn), the concentration for half-maximal inhibition (IC50) was found to be 229 µM in assay [1] and 57.1 µM in assay [2].

As for `NCCCCC(N)C(=O)N1CCCCCC1` (stereo not drawn), the IC50 is more than 1000 µM in assay [1] and 51.9 µM in assay [2].

As for `NCC(N)C(=O)N1CCCCC1` (stereo not drawn), the figures for the IC50 in assay [1] and in assay [2] were more than 1000 µM and 1.84 µM, respectively.

With `NCC[C@@H](N)C(=O)N1CCCCC1`, the half-inhibitory concentration (IC50) in assay [1] is more than 1000 µM; in assay [2], 130 µM.

Turning to `CCC(C)C(N)C(=O)NC1CCCC1` (stereo not drawn), the IC50 in assay [1] was more than 1000 µM; in assay [2] it was 500 µM.

Regarding `N#C[C@@H]1CCCCN1C(=O)C(N)CCN` (stereo partly drawn), the IC50 is 151 µM in assay [1] and 0.038 µM in assay [5].

On to `O=C(C1CCCS1)N1CCCC1` (stereo not drawn), for which the half-maximal inhibitory concentration (IC50) in assay [1] and in assay [2] was more than 500 µM in each case.

With `NCCCC[C@@H](N)C(=S)N1CCCCC1`, the IC50 in assay [1] is more than 1000 µM; in assay [2], 0.49 µM.

Turning to `NCCCCC(N)C(=O)N1CCC1` (stereo not drawn), the 50% inhibitory concentration (IC50) in assay [1] was determined as 500 µM; in assay [2], 159 µM.

`CCC(C)C(N)C(=O)N(CC)CC` (stereo not drawn): the half-inhibitory concentration (IC50) in assay [1] and in assay [2] was more than 500 µM each time.

As to `CCC(C)C(N)C(=O)N1CCC1` (stereo not drawn), the IC50 turned out to be 50.4 µM in assay [1] and 730 µM in assay [2].

In the case of `NCCCCC(N)C(=O)N1CCC(OC(=O)c2ccccc2)C1` (stereo not drawn), the half-maximal inhibitory concentration (IC50) is more than 1000 µM in assay [1] and 78.1 µM in assay [2].

`NCCC(N)C(=O)N1CCCCC1` (stereo in doubt; 9.7): the 50% inhibitory concentration (IC50) in assay [1] is more than 1000 µM; in assay [2], 0.13 µM.

Turning to `CCCN(C)C(=O)C(N)C(C)CC` (stereo not drawn), the IC50 in assay [1] was 377 µM; in assay [2], 213 µM.

On to `NCCC(N)C(=O)N1CCNCC1` (stereo not drawn), for which the values for the IC50 in assay [1] and in assay [2] were more than 1000 µM and 29.3 µM, respectively.

As for `NCCC(N)C(=O)N1CCCCC1` (stereo in doubt; 9.10), the concentration for half-maximal inhibition (IC50) in assay [1] was more than 1000 µM; in assay [2], 191 µM.

Consider `NCCCCC(N)C(=O)N1CCC(O)C1` (stereo not drawn), for which the figures for the 50% inhibitory concentration (IC50) in assay [1] and in assay [2] were 500 µM and 48 µM, respectively.

`NCCC(N)C(=O)N1CCCCC1` (stereo in doubt; 9.9): the IC50 in assay [1] was 500 µM; in assay [2] it was 1.15 µM.

Turning to `NCCCC[C@H](N)C(=O)N1CCCCC1` (stereo in doubt; 9.5), the concentration for half-maximal inhibition (IC50) was determined as 135 µM in assay [1] and 2.1 µM in assay [2].

Take `NCCC(N)C(=O)N1CCOCC1` (stereo not drawn): the IC50 in assay [1] was more than 1000 µM; in assay [2], 0.51 µM.

Regarding `NCC[C@H](N)C(=S)N1CCCCC1`, the half-maximal inhibitory concentration (IC50) was more than 1000 µM in assay [1] and 0.22 µM in assay [2].

As for `NCCC(N)C(=O)N1CCSC1` (stereo not drawn), the values for the concentration for half-maximal inhibition (IC50) in assay [1] and in assay [2] were 289 µM and 0.14 µM, respectively.

Take `N=C(N)NCCCC(N)C(=O)N1CCCCC1` (stereo not drawn): the IC50 turned out to be 18.1 µM in assay [1] and 0.63 µM in assay [2].

Take `CCC(C)C(N)C(=O)N1CCC(N=[N+]=[N-])C1` (stereo not drawn): the 50% inhibitory concentration (IC50) in assay [1] came to 107 µM; in assay [2], 43 µM.

In the case of `[N-]=[N+]=NC1CCN(C(=O)C(N)CCCCN)C1` (stereo not drawn), in assay [2], the IC50 was determined as 4.9 µM.

For the compound `CCC(C)C(N)C(=O)N1CCCCCC1` (stereo not drawn), the IC50 amounted to 374 µM in assay [1] and 228 µM in assay [2].

With `CCC(C)C(N)C(=O)N1CCC(F)C1` (stereo not drawn), the values for the IC50 in assay [1] and in assay [2] were 3.5 µM and 111 µM, respectively.
